Values joined by “and” are separate entries in the source; they are usually repeats but may differ in a detail not shown here. Equal values may be shown once. Inconclusive results and toxic doses are left out. Cut-off read from the data, not from the text of the source: active = T/C of 150% or more; inactive = T/C below 125%. Peptide text beside a SMILES is read from it. * marks the point of attachment. Cbz = O=C(OCc1ccccc1)*
Test system: L1210 leukemia ip in BDF1 mice, survival T/C
Test: NCI In Vivo Anticancer Drug Screen. Data for tumor model L1210 Leukemia (intraperitoneal) in B6D2F1 (BDF1) mice
Conditions: endpoint: mean survival time, higher = longer survival
How it was run: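 Tumor was transplanted into mice, which were then dosed with test compound or vehicle alone. Survival was recorded for each group, and the treated figure was expressed relative to the control figure.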

[1] = dose: 100.0 mg/kg/injection, schedule: Q01DX001 (ip), vehicle: carboxymethylcellulose (CMC)
[2] = dose: 200.0 mg/kg/injection, schedule: Q01DX001 (ip), vehicle: carboxymethylcellulose (CMC)
[3] = dose: 100.0 mg/kg/injection, schedule: Q04DX003 (ip), vehicle: Klucel (hydroxypropylcellulose) (HPC)
[4] = dose: 200.0 mg/kg/injection, schedule: Q04DX003 (ip), vehicle: Klucel (hydroxypropylcellulose) (HPC)
[5] = dose: 50.0 mg/kg/injection, schedule: Q01DX009 (ip), vehicle: saline
[6] = dose: 100.0 mg/kg/injection, schedule: Q01DX009 (ip), vehicle: saline
[7] = dose: 100.0 mg/kg/injection, schedule: Q04DX003 (ip), vehicle: saline
[8] = dose: 200.0 mg/kg/injection, schedule: Q04DX003 (ip), vehicle: saline
[9] = dose: 100.0 mg/kg/injection, schedule: Q04DX002 (ip), vehicle: saline with Tween-80
[10] = dose: 100.0 mg/kg/injection, schedule: Q01DX001 (ip), vehicle: saline
[11] = dose: 200.0 mg/kg/injection, schedule: Q01DX001 (ip), vehicle: saline
[12] = dose: 400.0 mg/kg/injection, schedule: Q01DX001 (ip), vehicle: saline
[13] = dose: 100.0 mg/kg/injection, schedule: Q04DX003 (ip), vehicle: saline with Tween-80
[14] = dose: 200.0 mg/kg/injection, schedule: Q04DX003 (ip), vehicle: saline with Tween-80
[15] = dose: 100.0 mg/kg/injection, schedule: Q01DX001 (ip), vehicle: Klucel (hydroxypropylcellulose) (HPC)
[16] = dose: 200.0 mg/kg/injection, schedule: Q01DX001 (ip), vehicle: Klucel (hydroxypropylcellulose) (HPC)
[17] = dose: 400.0 mg/kg/injection, schedule: Q01DX001 (ip), vehicle: Klucel (hydroxypropylcellulose) (HPC)

Measured: T/C

CCN(CC)C(=O)C(Br)C(Br)C(=O)N(CC)CC (stereo not given)
inactive: dose: 100.0 mg/kg/injection, schedule: Q04DX003 (ip), vehicle: acetone 100 % of control | dose: 200.0 mg/kg/injection, schedule: Q04DX003 (ip), vehicle: acetone 100 % of control | dose: 400.0 mg/kg/injection, schedule: Q04DX003 (ip), vehicle: acetone 92 % of control

CC1(C)C2CCC1(CS(=O)(=O)Cl)C(=O)C2 (stereo not given)
inactive: dose: 50.0 mg/kg/injection, schedule: Q01DX001 (ip), vehicle: carboxymethylcellulose (CMC) 100 % of control | [1] 97 % of control | [2] 97 % of control

O=P(Cc1ccccc1)(C(O)c1ccccc1)C(O)c1ccccc1 (stereo not given)
inactive: [3] 87 % of control | [4] 91 % of control

CN1CCC=C(C(=O)N2c3ccccc3CCc3ccccc32)C1
inactive: [5] 107 % of control | [6] 95 % of control | [7] 103 % of control | [8] 92 % of control

CC1(C(Cl)Cl)C(=O)C=Cc2ccccc21 (stereo not given)
inactive: [9] 95 % of control | dose: 200.0 mg/kg/injection, schedule: Q04DX002 (ip), vehicle: saline with Tween-80 98 % of control | dose: 400.0 mg/kg/injection, schedule: Q04DX002 (ip), vehicle: saline with Tween-80 95 % of control

C=CCc1ccc(OC(=O)Nc2ccc(S(=O)(=O)NC3CCCCC3)cc2)c(OC)c1
inactive: [10] 91 % of control | [11] 94 % of control | [12] 96 % of control

c1ccc(C(NC(c2ccccc2)c2ccccc2)c2ccccc2)cc1
inactive: dose: 50.0 mg/kg/injection, schedule: Q01DX001 (ip), vehicle: saline 91 % of control | [10] 97 % of control | [11] 93 % of control | [12] 97 % of control

Cc1ccc(S(=O)(=O)NC(Cc2ccccc2)C(=O)CCl)cc1 (stereo not given)
inactive: [13] 92 % of control | [14] 92 % of control

N#CC(O)C1(O)CCCCC1 (stereo not given)
inactive: dose: 6.25 mg/kg/injection, schedule: Q04DX003 (ip), vehicle: saline sonified 101 % of control | dose: 12.5 mg/kg/injection, schedule: Q04DX003 (ip), vehicle: saline sonified 101 % of control | dose: 25.0 mg/kg/injection, schedule: Q04DX003 (ip), vehicle: saline sonified 94 % of control

CC1CC(CC(=O)O)(C(=O)O)CC(C)O1 (stereo not given)
inactive: [15] 105 % of control | [13] 90 % of control | [16] 97 % of control | [14] 101 % of control | [17] 92 % of control | dose: 400.0 mg/kg/injection, schedule: Q04DX003 (ip), vehicle: saline with Tween-80 95 % of control

CN(C)Cc1ccc([N+](=O)[O-])cc1
inactive: dose: 25.0 mg/kg/injection, schedule: Q01DX009 (ip), vehicle: saline 93 % of control | [5] 98 % of control | dose: 75.0 mg/kg/injection, schedule: Q01DX001 (ip), vehicle: other 98 % of control | [6] 101 % of control | [7] 95 % of control | dose: 200.0 mg/kg/injection, schedule: Q01DX009 (ip), vehicle: saline 96 % of control | [8] 87 % of control

CCOC(=O)CNC(=O)C1CSC(C)(C)N1C=O (stereo not given)
inactive: [7] 101 % of control | [8] 94 % of control | dose: 400.0 mg/kg/injection, schedule: Q04DX003 (ip), vehicle: saline 101 % of control

CC(NC(=O)C(C)NC(=O)OCc1ccccc1)C(N)=O (stereo not drawn) (Cbz-Ala-Ala-NH2; configuration not given here)
inactive: dose: 100.0 mg/kg/injection, schedule: Q01DX009 (ip), vehicle: saline with Tween-80 88 % of control | dose: 200.0 mg/kg/injection, schedule: Q01DX009 (ip), vehicle: saline with Tween-80 88 % of control | dose: 400.0 mg/kg/injection, schedule: Q01DX009 (ip), vehicle: saline with Tween-80 88 % of control

O=S(=O)(OC1CC2C=CC1C21CC1)c1ccc(Br)cc1 (stereo not given)
inactive: [15] 98 % of control | [16] 97 % of control | [17] 94 % of control

CC(O)C[As](=O)(O)c1cccc(Cl)c1 (stereo not given)
inactive: dose: 12.5 mg/kg/injection, schedule: Q01DX001 (ip), vehicle: Klucel (hydroxypropylcellulose) (HPC) 108 % of control

CN=C(NC)c1ccc(NC(=O)c2cc(C(=O)Nc3ccc(C(=NC)NC)cc3)cc([N+](=O)[O-])c2)cc1
inactive: dose: 2.0 mg/kg/injection, schedule: Q01DX Z (ip), vehicle: water 97 % of control | dose: 4.0 mg/kg/injection, schedule: Q01DX Z (ip), vehicle: water 100 % of control | dose: 7.5 mg/kg/injection, schedule: Q01DX Z (ip), vehicle: saline 100 % of control | dose: 7.5 mg/kg/injection, schedule: Q01DX Z (ip), vehicle: water 112 % of control | dose: 15.0 mg/kg/injection, schedule: Q01DX Z (ip), vehicle: saline 96 % of control and 110 % of control | dose: 15.0 mg/kg/injection, schedule: Q01DX Z (ip), vehicle: water 108 % of control

Brc1cc(Br)c2c(c1)-c1ccccc1C2
inactive: [1] 96 % of control | [2] 113 % of control | dose: 400.0 mg/kg/injection, schedule: Q01DX001 (ip), vehicle: carboxymethylcellulose (CMC) 96 % of control

CCCCCCCCc1ccc(C(=O)O)cc1
inactive: [3] 105 % of control | [4] 101 % of control | dose: 400.0 mg/kg/injection, schedule: Q04DX003 (ip), vehicle: Klucel (hydroxypropylcellulose) (HPC) 91 % of control

CCOC(=O)/C(=N/N=C(N)N)c1c(C)[nH]c2ccccc12
inactive: dose: 15.0 mg/kg/injection, schedule: Q01DX Z (ip), vehicle: carboxymethylcellulose (CMC) 102 % of control | dose: 30.0 mg/kg/injection, schedule: Q01DX Z (ip), vehicle: carboxymethylcellulose (CMC) 100 % of control | dose: 60.0 mg/kg/injection, schedule: Q01DX Z (ip), vehicle: carboxymethylcellulose (CMC) 95 % of control and 100 % of control | dose: 120.0 mg/kg/injection, schedule: Q01DX Z (ip), vehicle: carboxymethylcellulose (CMC) 93 % of control and 100 % of control | dose: 240.0 mg/kg/injection, schedule: Q01DX Z (ip), vehicle: carboxymethylcellulose (CMC) 100 % of control | dose: 240.0 mg/kg/injection, schedule: Q01DX Z (sc), vehicle: carboxymethylcellulose (CMC) 112 % of control | dose: 480.0 mg/kg/injection, schedule: Q01DX Z (ip), vehicle: carboxymethylcellulose (CMC) 90 % of control | dose: 480.0 mg/kg/injection, schedule: Q01DX Z (sc), vehicle: carboxymethylcellulose (CMC) 114 % of control | dose: 960.0 mg/kg/injection, schedule: Q01DX Z (sc), vehicle: carboxymethylcellulose (CMC) 120 % of control | dose: 1920.0 mg/kg/injection, schedule: Q01DX Z (sc), vehicle: carboxymethylcellulose (CMC) 103 % of control

CN(C)CCC(CNC1=NCCN1)c1cccc2ccccc12 (stereo not given)
inactive: dose: 25.0 mg/kg/injection, schedule: Q04DX002 (ip), vehicle: saline with Tween-80 108 % of control | dose: 50.0 mg/kg/injection, schedule: Q04DX002 (ip), vehicle: saline with Tween-80 101 % of control | [9] 101 % of control
